Laboratory results: patent US11319322B2, “Substituted aryl ether compound, preparation method thereof, pharmaceutical composition and use thereof” (Xiamen University, priority 2017, dated 2022)

Legend:
Format in all cases: cell-based
KIF5B-RET-BaF3 = biological target: T1, KIF5B-RET-BaF3 (Homo sapiens, UniProt P07949); test: Growth inhibition of KIF5B-RET-BaF3 cells stably transfected with kinase (MTS); conditions: 48 h, read-out: KIF5B-RET (IC50/nM)
T1 construct: fused on or other part: P33176 (Kinesin-1 heavy chain)
Procedure, shortened: (§1)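 IC50 derived from growth inhibition by MTS absorbance at 490 nm after 48 h compound exposure (top 10 μM, 1:3 steps, 8 points, 0.1% DMSO) of 2×10^4 RET-fusion (CCDC6-RET, KIF5B-RET) or wild-type BaF3 cells per well, in triplicate.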

wild-type BaF3 = test: Growth inhibition of wild-type BaF3 cells, broad-spectrum toxicity (MTS); conditions: Mus musculus, 48 h, read-out: WT Ba/F3 (IC50/nM)
Protocol: Growth inhibitory activity of compounds on cell lines stably transfected with kinase
The activity of compounds against kinase RET is evaluated by their effect of inhibiting growth of cell lines stably transfected with kinase CCDC6-RET-BaF3, KIF5B-RET-BaF3, and wild-type BaF3 (Proc. Natl. Acad. Sci. USA., 2006, 103, 3153-8.). The growth of the cell lines stably transfected with kinase CCDC6-RET-BaF3, KIF5B-RET-BaF3 depends on their kinase activity. If a compound can inhibit the activity of the kinase RET per se or the activity of the RET signaling pathway, the compound can inhibit the growth of BaF3 cells stably transfected with kinase. […] Therefore, a larger ratio between IC50 of a compound to wild-type BaF3 and IC50 of the compound to the cell lines stably transfected with kinase CCDC6-RET-BaF3, KIF5B-RET-BaF3 indicates better targeting.
The specific test method is given as follows:
1) Medium: DMEM (Dulbecco's modified eagle medium) or RPMI 1640 (containing 10% fetal bovine serum, 100 μg/mL ampicillin, 100 μg/mL streptomycin).
2) Reagents: MTS reaction solution (containing 2 mg/mL of MTS [3-(4,5-dimethylthiazol-2-yl)-5-(3-carboxymethoxyphenyl)-2-(4-sulfophenyl)-2H-tetrazolium, inner Salt]; 100 μg/mL PES (phenazine […])).
3) Compound test: cells stably transfected with kinase (CCDC6-RET-BaF3, KIF5B-RET-BaF3) or wild-type BaF3 cells (2×10^4 cells/well) were incubated into a 96-well culture plate, the volume of cell culture fluid was 90 μL, and then 10 μL of the compound at each gradient concentration was added (the highest concentration was 10 μM, which was diluted stepwise by ⅓, and 8 concentration points were set in total; the system contained 0.1% DMSO (dimethyl sulfoxide)). The cell plate with uniformly mixed compound was cultured in a cell culture incubator (37° C.; 5% CO2) for 48 h, then 20 μL of MTS reaction solution was added, uniformly mixed and incubated in the cell culture incubator (37° C.; 5% CO2) for 1-4 hr, OD values at 490 nm were measured by a microplate reader (VARIOSKAN FLASH, Thermo). Three parallels were set in each group of experiments, with 0.1% (a final concentration) DMSO as a negative control, and a medium without cells or compounds as a blank control. The cell growth inhibition rate was calculated by the following formula: Cell growth inhibition rate %=1−(ODexperimental group−ODblank group)/(ODnegative group−ODblank group)×100%
4) IC50 calculation: The semi-inhibitory concentration of the compound acting on cell growth was calculated using GradPad Prism 5 software according to the measured cell growth inhibition rate.

CCDC6-RET-BaF3 = biological target: T2, CCDC6-RET-BaF3 (Homo sapiens, UniProt P07949); test: Growth inhibition of CCDC6-RET-BaF3 cells stably transfected with kinase (MTS); conditions: 48 h, read-out: CCDC6-RET (IC50/nM)
T2 construct: fused on or other part: Q16204 (Coiled-coil domain-containing protein 6)
Procedure, shortened: as §1

T1 sequence (P07949 whole entry, change not shown, the tested form may be a part): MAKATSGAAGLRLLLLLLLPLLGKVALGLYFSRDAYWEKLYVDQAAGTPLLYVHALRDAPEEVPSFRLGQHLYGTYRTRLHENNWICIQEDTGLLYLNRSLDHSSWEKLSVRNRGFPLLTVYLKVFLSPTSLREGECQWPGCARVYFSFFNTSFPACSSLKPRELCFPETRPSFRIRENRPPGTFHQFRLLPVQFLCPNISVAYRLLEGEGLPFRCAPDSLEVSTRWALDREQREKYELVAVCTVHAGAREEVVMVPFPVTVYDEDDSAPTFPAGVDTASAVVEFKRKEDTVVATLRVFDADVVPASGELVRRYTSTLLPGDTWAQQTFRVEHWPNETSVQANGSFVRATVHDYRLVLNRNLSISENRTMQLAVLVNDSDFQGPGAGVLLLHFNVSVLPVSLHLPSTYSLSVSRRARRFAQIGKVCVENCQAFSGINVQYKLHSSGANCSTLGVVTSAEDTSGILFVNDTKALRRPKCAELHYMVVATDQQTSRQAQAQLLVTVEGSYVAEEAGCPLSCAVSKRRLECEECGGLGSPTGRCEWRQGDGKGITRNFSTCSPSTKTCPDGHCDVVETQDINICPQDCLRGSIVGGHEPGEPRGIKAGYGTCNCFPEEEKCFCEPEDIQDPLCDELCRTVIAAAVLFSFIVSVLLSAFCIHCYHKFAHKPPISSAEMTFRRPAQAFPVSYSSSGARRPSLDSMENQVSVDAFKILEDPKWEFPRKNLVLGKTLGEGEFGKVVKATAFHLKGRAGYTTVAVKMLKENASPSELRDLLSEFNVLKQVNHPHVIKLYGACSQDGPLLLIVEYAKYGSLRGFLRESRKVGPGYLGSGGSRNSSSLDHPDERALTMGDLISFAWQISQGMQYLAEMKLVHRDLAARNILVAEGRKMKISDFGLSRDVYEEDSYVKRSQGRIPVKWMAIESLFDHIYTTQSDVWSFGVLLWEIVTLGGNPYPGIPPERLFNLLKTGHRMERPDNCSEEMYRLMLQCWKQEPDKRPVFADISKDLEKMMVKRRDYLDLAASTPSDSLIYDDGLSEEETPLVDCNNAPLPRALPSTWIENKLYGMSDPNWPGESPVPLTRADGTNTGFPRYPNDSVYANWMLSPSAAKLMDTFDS
T2 sequence (P07949 whole entry, change not shown, the tested form may be a part): as above

Compound	GI50 (KIF5B-RET-BaF3)	IC50 (wild-type BaF3)	GI50 (CCDC6-RET-BaF3)
CN1CCN(Cc2ccc(C(=O)Nc3cc(Oc4nc(-c5ccc(N)cc5)nc5cc[nH]c45)ccc3Cl)cc2C(F)(F)F)CC1 [III-k-11]	496 nM	1290 nM	451 nM
CN1CCN(Cc2ccc(C(=O)Nc3cc(Oc4nc(-c5ccc(Cl)cc5)nc5cc[nH]c45)ccc3Cl)cc2C(F)(F)F)CC1 [III-k-13]	1550 nM	1600 nM	1450 nM
Cc1ccc(-c2nc(Oc3ccc(Cl)c(NC(=O)c4ccc(CN5CCN(C)CC5)c(C(F)(F)F)c4)c3)c3c(ccn3C)n2)cc1 [III-k-16]	3190 nM	3630 nM	2090 nM
CN1CCN(Cc2ccc(C(=O)Nc3cc(Oc4nc(-c5ccccc5)nc5cc[nH]c45)ccc3Cl)cc2C(F)(F)F)CC1 [III-k-17]	2610 nM	2630 nM	1410 nM
CN1CCN(Cc2ccc(C(=O)Nc3cc(Oc4nc(-c5ccccc5)nc5ccn(C)c45)ccc3Cl)cc2C(F)(F)F)CC1 [III-k-18]	3990 nM	3890 nM	4120 nM
Cc1ccc(C(=O)Nc2ccc(CN3CCN(C)CC3)c(C(F)(F)F)c2)cc1Oc1nc(-c2ccccc2)nc2cc[nH]c12 [III-m-3]	2410 nM	3100 nM	2710 nM
Cc1ccc(-c2nc(Oc3cc(C(=O)Nc4ccc(CN5CCN(C)CC5)c(C(F)(F)F)c4)ccc3C)c3[nH]ccc3n2)cc1 [III-m-4]	3860 nM	3460 nM	2720 nM
Cc1ccc(C(=O)Nc2ccc(CN3CCN(C)CC3)c(C(F)(F)F)c2)cc1Oc1nc(-c2cccc(Cl)c2)nc2cc[nH]c12 [III-m-5]	4040 nM	3920 nM	3760 nM
Cc1ccc(C(=O)Nc2ccc(CN3CCN(C)CC3)c(C(F)(F)F)c2)cc1Oc1nc(-c2ccc(Cl)cc2)nc2cc[nH]c12 [III-m-6]	3950 nM	2790 nM	3770 nM
Cc1ccc(C(=O)Nc2ccc(CN3CCN(C)CC3)c(C(F)(F)F)c2)cc1Oc1nc(-c2cccc(O)c2)nc2cc[nH]c12 [III-m-7]	2350 nM	4330 nM	1410 nM
Cc1ccc(C(=O)Nc2ccc(CN3CCN(C)CC3)c(C(F)(F)F)c2)cc1Oc1nc(-c2ccoc2)nc2cc[nH]c12 [III-m-8]	1710 nM	4100 nM	1240 nM
Cc1ccc(C(=O)Nc2ccc(CN3CCN(C)CC3)c(C(F)(F)F)c2)cc1Oc1nc(-c2cccnc2)nc2ccn(C)c12 [III-m-9]	3050 nM	1440 nM	1250 nM
Cc1ccc(C(=O)Nc2ccc(CN3CCN(C)CC3)c(C(F)(F)F)c2)cc1Oc1nc(-c2ccncc2)nc2ccn(C)c12 [III-m-10]	1050 nM	623 nM	544 nM
Cc1ccc(-c2nc(Oc3cc(C(=O)Nc4ccc(CN5CCN(C)CC5)c(C(F)(F)F)c4)ccc3C)c3c(ccn3C)n2)cc1 [III-m-12]	4280 nM	3580 nM	4020 nM
Cc1ccc(C(=O)Nc2ccc(CN3CCN(C)CC3)c(C(F)(F)F)c2)cc1Oc1nc(-c2cccc(Cl)c2)nc2ccn(C)c12 [III-m-13]	3000 nM	3390 nM	3510 nM
Cc1ccc(C(=O)Nc2ccc(CN3CCN(C)CC3)c(C(F)(F)F)c2)cc1Oc1nc(-c2ccc(Cl)cc2)nc2ccn(C)c12 [III-m-14]	2720 nM	3190 nM	2920 nM
Cc1ccc(C(=O)Nc2ccc(CN3CCN(C)CC3)c(C(F)(F)F)c2)cc1Oc1nc(-c2cccc(O)c2)nc2ccn(C)c12 [III-m-15]	3930 nM	7210 nM	2960 nM
Cc1ccc(C(=O)Nc2ccc(CN3CCN(C)CC3)c(C(F)(F)F)c2)cc1Oc1nc(-c2ccc(O)cc2)nc2ccn(C)c12 [III-m-16]	4420 nM	4360 nM	3670 nM
Cc1ccc(C(=O)Nc2ccc(CN3CCN(C)CC3)c(C(F)(F)F)c2)cc1Oc1nc(-c2ccsc2)nc2ccn(C)c12 [III-m-18]	2680 nM	3510 nM	2960 nM

Compound	GI50 (KIF5B-RET-BaF3)	IC50 (wild-type BaF3)	GI50 (CCDC6-RET-BaF3)
CNc1nc(Oc2cc(C(=O)Nc3ccc(CN4CCN(C)CC4)c(C(F)(F)F)c3)ccc2C)c2c(ccn2C)n1 [III-m-19]	3270 nM	4020 nM	2510 nM
Cc1ccc(C(=O)Nc2ccc(CN3CCN(C)CC3)c(C(F)(F)F)c2)cc1Oc1nc(N2CCOCC2)nc2ccn(C)c12 [III-m-20]	2500 nM	3550 nM	2960 nM
Cc1ccc(C(=O)Nc2ccc(CN3CCN(C)CC3)c(C(F)(F)F)c2)cc1Oc1nc(N2CC(C)OC(C)C2)nc2ccn(C)c12 (stereo not drawn) [III-m-21]	3750 nM	2920 nM	3490 nM
Cc1ccc(C(=O)Nc2ccc(CN3CCN(C)CC3)c(C(F)(F)F)c2)cc1Oc1ncnc2ccn(C)c12 [III-m-22]	854 nM	> 10000 nM	597 nM
Cc1ccc(C(=O)Nc2ccc(CN3CCN(C)CC3)c(C(F)(F)F)c2)cc1Oc1nc(N2CCN(C)CC2)nc2ccn(C)c12 [III-m-23]	477 nM	464 nM	515 nM
Cc1ccc(C(=O)Nc2ccc(CN3CCN(C)CC3)c(C(F)(F)F)c2)cc1Oc1nc(N(C)C)nc2ccn(C)c12 [III-m-24]	3230 nM	3080 nM	3120 nM
Cc1ccc(C(=O)Nc2ccc(CN3CCN(C)CC3)c(C(F)(F)F)c2)cc1Oc1nc(-c2ccc(O)cc2)nc2cc[nH]c12 [III-m-26]	2900 nM	4100 nM	1320 nM
Cc1ccc(C(=O)Nc2ccc(CN3CCN(C)CC3)c(C(F)(F)F)c2)cc1Oc1nc(-c2ccsc2)nc2cc[nH]c12 [III-m-27]	1500 nM	34500 nM	1400 nM
CN1CCN(Cc2ccc(NC(=O)c3cc(Oc4nc(-c5cccnc5)nc5cc[nH]c45)ccc3Cl)cc2C(F)(F)F)CC1 [III-o-1]	1550 nM	1630 nM	2150 nM
CN1CCN(Cc2ccc(NC(=O)c3cc(Oc4nc(-c5ccncc5)nc5cc[nH]c45)ccc3Cl)cc2C(F)(F)F)CC1 [III-o-2]	13.4 nM	1290 nM	17.4 nM
CN1CCN(Cc2ccc(NC(=O)c3cc(Oc4nc(-c5cccnc5)nc5ccn(C)c45)ccc3Cl)cc2C(F)(F)F)CC1 [III-o-3]	1330 nM	1300 nM	1280 nM
CN1CCN(Cc2cc(NC(=O)c3cccc(Oc4nc(-c5cccnc5)nc5cc[nH]c45)c3)cc(C(F)(F)F)c2)CC1 [III-p-1]	2920 nM	3550 nM	4400 nM
CN1CCN(Cc2cc(NC(=O)c3cccc(Oc4nc(-c5ccncc5)nc5cc[nH]c45)c3)cc(C(F)(F)F)c2)CC1 [III-p-2]	672 nM	> 10000 nM	449 nM
CN1CCN(Cc2cc(NC(=O)c3cccc(Oc4nc(-c5ccncc5)nc5ccn(C)c45)c3)cc(C(F)(F)F)c2)CC1 [III-p-4]	3650 nM	> 10000 nM	3230 nM
Cc1ccc(C(=O)Nc2cc(CN3CCN(C)CC3)cc(C(F)(F)F)c2)cc1Oc1nc(-c2cccnc2)nc2cc[nH]c12 [III-q-1]	1540 nM	1430 nM	1330 nM
Cc1ccc(C(=O)Nc2cc(CN3CCN(C)CC3)cc(C(F)(F)F)c2)cc1Oc1nc(-c2ccncc2)nc2cc[nH]c12 [III-q-2]	594 nM	843 nM	351 nM
Cc1ccc(C(=O)Nc2cc(CN3CCN(C)CC3)cc(C(F)(F)F)c2)cc1Oc1nc(-c2cccnc2)nc2ccn(C)c12 [III-q-3]	1400 nM	1380 nM	1400 nM
Cc1ccc(C(=O)Nc2cc(CN3CCN(C)CC3)cc(C(F)(F)F)c2)cc1Oc1nc(-c2ccncc2)nc2ccn(C)c12 [III-q-4]	1270 nM	1330 nM	901 nM
Cc1ccc(Oc2nc(-c3ccncc3)nc3cc[nH]c23)cc1C(=O)Nc1cc(CN2CCN(C)CC2)cc(C(F)(F)F)c1 [III-r-2]	535 nM	4130 nM	386 nM
